# From patent US11046710B2, “Sulfonamide compounds” (DAIICHI SANKYO COMPANY, LIMITED, priority 2016, dated 2021)
# Target: human TNAP (Homo sapiens (Human), UniProt P05186)
# Assay: Inhibitory test of TNAP activity (pNPP substrate, p-nitrophenol production)
# Type: biochemical
# Settings: human TNAP from transfected COS1 culture supernatant, 60 minutes at room temperature
# Protocol: COS1 cells (DS Pharma Biomedical Co., Ltd.) were transfected with human TNAP (OriGene Technologies, Inc.) using Lipofectamine LTX & Plus reagent (Invitrogen Corp.). On the next day, the medium was replaced with a fresh medium, and the cells were cultured in an incubator for 3 days. After 3 days, the culture supernatant was collected and concentrated by centrifugation at 5000 G for 30 minutes using Amicon 14, 10^4 cut (Merck Millipore). The concentrated culture supernatant was dialyzed against 5 L of 50 mM Tris/200 mM NaCl/1 mM MgCl2/20 μM ZnCl2 twice and used as an enzyme source (enzyme solution). The substrate pNPP (ProteoChem Inc.) was adjusted to 3.1 mM with Milli-Q water, and a solution of each test compound dissolved in dimethyl sulfoxide (DMSO; Wako Pure Chemical Industries, Ltd.) by 6 serial dilutions at a 5-fold common ratio from 100 μM, or DMSO was added thereto at a final concentration of 1% by volume. The enzyme solution adjusted to 2 μg/mL with an assay buffer (200 mM Tris/2 mM MgCl2/0.04 mM ZnCl2/0.01% Tween 20) was added in the same amount of the substrate solution and incubated at room temperature for 60 minutes. Then, the absorbance (ABS: 405 nm) was measured using a microplate reader (model plus 384, Molecular Devices, LLC), and the concentration of produced p-nitrophenol was calculated.
# Sequence of human TNAP (P05186 18-524): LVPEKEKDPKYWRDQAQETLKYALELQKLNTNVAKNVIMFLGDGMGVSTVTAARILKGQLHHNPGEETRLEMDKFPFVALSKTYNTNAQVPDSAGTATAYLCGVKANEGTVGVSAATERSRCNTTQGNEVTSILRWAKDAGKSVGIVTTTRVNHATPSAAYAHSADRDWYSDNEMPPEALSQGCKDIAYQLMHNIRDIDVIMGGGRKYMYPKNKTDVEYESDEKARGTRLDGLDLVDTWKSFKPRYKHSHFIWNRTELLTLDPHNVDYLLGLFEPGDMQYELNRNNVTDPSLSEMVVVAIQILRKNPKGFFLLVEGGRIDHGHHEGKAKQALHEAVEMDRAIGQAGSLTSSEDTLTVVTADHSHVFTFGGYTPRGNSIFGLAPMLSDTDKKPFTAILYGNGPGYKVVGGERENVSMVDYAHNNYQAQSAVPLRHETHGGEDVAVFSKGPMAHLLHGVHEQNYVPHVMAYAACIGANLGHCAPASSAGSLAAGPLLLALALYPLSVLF
row,SMILES,IC50 [nM]
1,"O=C1c2cc(NS(=O)(=O)c3cc(Cl)ccc3OC(F)(F)F)cnc2OC[C@H]2[C@@H](O)CCN12 [Example 42, 5-chloro-N-[(9S,9aS)-9-hydroxy-5-oxo-8,9,9a,10-tetrahydro-5H,7H-pyrido[3,2-f]pyrrolo[2,1-c][1,4]oxazepin-3-yl]-2-(trifluoromethoxy)benzenesulfonamide]",0.4
2,"CNC(=O)O[C@H]1C[C@@H]2COc3ncc(NS(=O)(=O)c4cc(Cl)ccc4OC)cc3C(=O)N2C1 [Example 48, (8S,9aR)-3-{[(5-chloro-2-methoxyphenyl)sulfonyl]amino}-5-oxo-8,9,9a,10-tetrahydro-5H, 7H-pyrido[3,2-f]pyrrolo[2,1-c][1,4]oxazepin-8-yl methylcarbamate]",0.6
3,"COC(=O)N[C@@H]1C[C@@H]2COc3ncc(NS(=O)(=O)c4cc(Cl)ccc4OC)cc3C(=O)N2C1 [Example 50, methyl [(8R,9aR)-3-{[(5-chloro-2-methoxyphenyl)sulfonyl]amino}-5-oxo-8,9,9a,10-tetrahydro-5H, 7H-pyrido[3,2-f]pyrrolo[2,1-c][1,4]oxazepin-8-yl]carbamate]",0.5
4,"COc1ccc(Cl)cc1S(=O)(=O)Nc1cnc2c(c1)CN1C(=O)[C@@H](O)C[C@H]1CO2 [Example 54, 5-chloro-N-[(8S,9aS)-8-hydroxy-7-oxo-8,9,9a,10-tetrahydro-5H,7H-pyrido[3,2-f]pyrrolo[2,1-c][1,4]oxazepin-3-yl]-2-methoxybenzenesulfonamide]",1.1
5,"O=C1[C@@H](O)C[C@H]2COc3ncc(NS(=O)(=O)c4cc(Cl)ccc4OC(F)(F)F)cc3CN12 [Example 56, 5-chloro-N-[(8S,9aS)-8-hydroxy-7-oxo-8,9,9a,10-tetrahydro-5H,7H-pyrido[3,2-f]pyrrolo[2,1-c][1,4]oxazepin-3-yl]-2-(trifluoromethoxy)benzenesulfonamide]",1.4
6,"CCOc1ccc(F)cc1S(=O)(=O)Nc1cnc2c(c1)CN1C(=O)COC[C@H]1CO2 [Example 61, 2-ethoxy-5-fluoro-N-[(10aS)-7-oxo-7,8,10a,11-tetrahydro-5H,10H-[1,4]oxazino[3,4-c]pyrido[3,2-f][1,4]oxazepin-3-yl]benzenesulfonamide]",0.6

# Further lines, results first:
row,IC50 [nM],SMILES
1,5.8,"COc1ccc(Cl)cc1S(=O)(=O)Nc1cnc2c(c1)C(=O)N1CC[C@@H](O)[C@@H]1CO2 [Example 40, 5-chloro-N-[(9R,9aS)-9-hydroxy-5-oxo-8,9,9a,10-tetrahydro-5H,7H-pyrido[3,2-f]pyrrolo[2,1-c][1,4]oxazepin-3-yl]-2-methoxybenzenesulfonamide]"
2,0.4,"COc1ccc(Cl)cc1S(=O)(=O)Nc1cnc2c(c1)C(=O)N1CC[C@H](O)[C@@H]1CO2 [Example 41, 5-chloro-N-[(9S,9aS)-9-hydroxy-5-oxo-8,9,9a,10-tetrahydro-5H,7H-pyrido[3,2-f]pyrrolo[2,1-c][1,4]oxazepin-3-yl]-2-methoxybenzenesulfonamide]"
3,0.8,"COc1ccc(Cl)cc1S(=O)(=O)Nc1cnc2c(c1)C(=O)N1C[C@@H](F)C[C@@H]1CO2 [Example 44, 5-chloro-N-[(8S,9aR)-8-fluoro-5-oxo-8,9,9a,10-tetrahydro-5H,7H-pyrido[3,2-f]pyrrolo[2,1-c][1,4]oxazepin-3-yl]-2-methoxybenzenesulfonamide]"
4,2,"COc1ccc(Cl)cc1S(=O)(=O)Nc1cnc2c(c1)C(=O)N1CC(F)(F)C[C@@H]1CO2 [Example 45, 5-chloro-N-[(9aR)-8,8-difluoro-5-oxo-8,9,9a,10-tetrahydro-5H,7H-pyrido[3,2-f]pyrrolo[2,1-c][1,4]oxazepin-3-yl]-2-methoxybenzenesulfonamide]"
5,0.5,"COc1ccc(Cl)cc1S(=O)(=O)Nc1cnc2c(c1)C(=O)N1C[C@@H](OC)C[C@@H]1CO2 [Example 46, 5-chloro-2-methoxy-N-[(8S,9aR)-8-methoxy-5-oxo-8,9,9a,10-tetrahydro-5H,7H-pyrido[3,2-f]pyrrolo[2,1-c][1,4]oxazepin-3-yl]benzenesulfonamide]"
6,1.5,"CC(=O)O[C@H]1C[C@@H]2COc3ncc(NS(=O)(=O)c4cc(Cl)ccc4OC(F)(F)F)cc3C(=O)N2C1 [Example 47, (8S,9aR)-3-({[5-chloro-2-(trifluoromethoxy)phenyl]sulfonyl}amino)-5-oxo-8,9,9a,10-tetrahydro-5H,7H-pyrido[3,2-f]pyrrolo[2,1-c][1,4]oxazepin-8-yl acetate]"
7,2.2,"COc1ccc(Cl)cc1S(=O)(=O)Nc1cnc2c(c1)CN1C(=O)CC[C@H]1CO2 [Example 52, 5-chloro-2-methoxy-N-[(9aS)-7-oxo-8,9,9a,10-tetrahydro-5H,7H-pyrido[3,2-f]pyrrolo[2,1-c][1,4]oxazepin-3-yl]benzenesulfonamide]"
8,4.3,"COc1ccc(Cl)cc1S(=O)(=O)Nc1cnc2c(c1)CN1C(=O)[C@H](O)C[C@H]1CO2 [Example 53, 5-chloro-N-[(8R,9aS)-8-hydroxy-7-oxo-8,9,9a,10-tetrahydro-5H,7H-pyrido[3,2-f]pyrrolo[2,1-c][1,4]oxazepin-3-yl]-2-methoxybenzenesulfonamide]"
9,3.8,"COc1ccc(Cl)cc1S(=O)(=O)Nc1cnc2c(c1)CN1C(=O)OC[C@H]1CO2 [Example 58, 5-chloro-2-methoxy-N-[(9aR)-7-oxo-9a,10-dihydro-5H, 9H-[1,3]oxazolo[4,3-c]pyrido[3,2-f][1,4]oxazepin-3-yl]benzenesulfonamide]"
10,1.4,"COc1ccc(Cl)cc1S(=O)(=O)Nc1cnc2c(c1)CN1C(=O)CCC[C@H]1CO2 [Example 59, 5-chloro-2-methoxy-N-[(10aS)-7-oxo-7,8,9,10,10a, 11-hexahydro-5H-dipyrido[2,1-c:3′,2′-f][1,4]oxazepin-3-yl]benzenesulfonamide]"
11,3.3,"COc1ccc(Cl)cc1S(=O)(=O)Nc1cnc2c(c1)CN1C(=O)COC[C@H]1CO2 [Example 60, 5-chloro-2-methoxy-N-[(10aS)-7-oxo-7,8,10a,11-tetrahydro-5H,10H-[1,4]oxazino[3,4-c]pyrido[3,2-f][1,4]oxazepin-3-yl]benzenesulfonamide]"
12,1.4,O=C1COCC2COc3ncc(NS(=O)(=O)c4cc(Cl)ccc4OC(F)(F)F)cc3CN12 (centres unmarked) [Example 63]
13,1.8,"COc1ccc(Cl)cc1S(=O)(=O)Nc1cnc2c(c1)CN1C(=O)CN(C)C[C@H]1CO2 [Example 64, 5-chloro-2-methoxy-N-[(10aS)-9-methyl-7-oxo-7,8,9,10,10a, 11-hexahydro-5H-pyrazino[2,1-c]pyrido[3,2-f][1,4]oxazepin-3-yl]benzenesulfonamide]"

# System: plasma ALP (80-90% containing TNAP)
# Assay: Inhibitory test of plasma TNAP activity in B6 mouse
# Type: in vivo
# Settings: oral, dose 1 mg/kg, average 0-6 h after administration
# Protocol: After blood sampling from the tail vein using a heparin-treated hematocrit capillary tube (EM Meister Hematocrit Capillary Tube, AS ONE Corp.) (as the sample before compound administration), each test compound suspended in a 0.5% methylcellulose solution (powder purchased from Wako Pure Chemical Industries, Ltd. was adjusted to 0.5% with Otsuka distilled water) was administered orally to the mouse. 1, 2, 4, 6, and 24 hours after the administration, blood was collected from the tail vein using a heparin-treated hematocrit capillary tube to obtain a plasma sample. The plasma sample was added to an assay buffer (1 M Tris, 1 M MgCl2, 20 mM ZnCl2, and water, pH 7.5), and the mixture was left standing for 5 minutes. Then, the absorbance at 405 nm was measured and used as a blank. The substrate pNPP was added to the plasma sample and incubated at room temperature for 180 minutes. Then, the absorbance (ABS: 405 nm) was measured using a microplate reader (model plus 384, Molecular Devices, LLC), and the concentration of produced p-nitrophenol was calculated. The blank was subtracted from all measurement values to calculate TNAP activity at each time point with the TNAP activity of the sample before compound administration defined as 100%. The pharmaceutical effect of the test compound was evaluated by the average inhibition of plasma ALP (80-90% containing TNAP) activity for 6 hours from 0 hour to 6 hour after the administration of the test compound. It was calculated according to the following expression: 100−((plasma ALP activity at 0 hr+plasma ALP activity at 1 hr)*½+(plasma ALP activity at 1 hr+plasma ALP activity at 2 hr)*½+(plasma ALP activity at 2 hr+plasma ALP activity at 4 hr)*2/2+(plasma ALP activity at 4 hr+plasma ALP activity at 6 hr)*2/2)/6 The results are shown in Table 2.
row,SMILES,Plasma ALP inhibition (6 h ave. inhibition %) [%]
1,"COc1ccc(Cl)cc1S(=O)(=O)[N-]c1cnc2c(c1)-c1nnc(C)n1CCO2.[K+] [Example 2, Potassium [(5-chloro-2-methoxyphenyl)sulfonyl](3-methyl-5,6-dihydropyrido[3,2-f][1,2,4]triazolo[4,3-d][1,4]oxazepin-10-yl)azanide]",34.4
2,"CCc1nnc2n1CCOc1ncc([N-]S(=O)(=O)c3cc(Cl)ccc3OC)cc1-2.[K+] [Example 4, Potassium [(5-chloro-2-methoxyphenyl)sulfonyl](3-ethyl-5,6-dihydropyrido[3,2-f][1,2,4]triazolo[4,3-d][1,4]oxazepin-10-yl)azanide]",40.7

# Same assay, conditions: oral, dose 3 mg/kg, average 0-6 h after administration
row,SMILES,Plasma ALP inhibition (6 h ave. inhibition %) [%]
1,"COc1ccc(Cl)cc1S(=O)(=O)[N-]c1cnc2c(c1)-c1ccnn1CCO2.[K+] [Example 8, Potassium [(5-chloro-2-methoxyphenyl)sulfonyl](5,6-dihydropyrazolo[1,5-d]pyrido[3,2-f][1,4]oxazepin-10-yl)azanide]",29.4
2,"CCOc1ccc(F)cc1S(=O)(=O)[N-]c1cnc2c(c1)-c1ccnn1CCO2.[K+] [Example 10, Potassium 5,6-dihydropyrazolo[1,5-d]pyrido[3,2-f][1,4]oxazepin-10-yl[(2-ethoxy-5-fluorophenyl)sulfonyl]azanide]",43.3
